# Source: patent US10583178B2, “Compositions comprising sulforaphane or a sulforaphane precursor and a mushroom extract or powder” (NUTRAMAX LABORATORIES, INC., priority 2012, dated 2020)
# Legend:
# myrosinase = experiment: Conversion of glucoraphanin to sulforaphane in Simulated Intestinal Fluid; assay type: biochemical, broccoli; conditions: 38° C., 0.25 to 1.00 mmol/Liter, especially at earlier stages
# Method: Simulated Intestinal Fluid (SIF) powder, a commercially supplied concentrate closely approximating the human intestinal content in terms of composition, pH and ionic strength, was used. The experiment utilized a USP Dissolution Apparatus 2 (paddles), where into six dissolution vessels 500 mL of Simulated Intestinal Fluid was dispensed, along with 150 mg of freeze-dried broccoli sprout powder as a source of myrosinase. […] Aliquots were withdrawn every 15 minutes, and assayed for sulforaphane.
# [1] = system: broccoli sprout-derived myrosinase; experiment: Consumption of glucoraphanin by myrosinase as a function of ascorbic acid concentration; assay type: biochemical; conditions: 38° C.
# Method: About 250 mg of broccoli seed extract containing about 12% (w/w) glucoraphanin were subjected to hydrolysis by a fixed concentration of broccoli sprout-derived myrosinase in the presence of variable concentration of ascorbic acid, ranging from 0 to 600 μmoles/Liter. The reaction mixtures were thermostated at 38° C.; aliquots were withdrawn every 15 minutes for 60 minutes, and concentration of glucoraphanin determined chromatographically. The rate of glucoraphanin consumption was interpreted as the rate its conversion to sulforaphane. Graphical representation of glucoraphanin content reduction as a function of increasing ascorbic acid concentration results in a series of linear plots; the slopes of the linear regression lines reflect the rate of glucoraphanin consumption, in moles/minute. It is apparent that in the presence of 600 μmoles/Liter concentration of ascorbic acid, the reaction rate increased 13-fold relative to that which proceeded in the absence of modulatory effects of ascorbic acid.
# [2] = system: NAD(P)H:quinone oxidoreductase (NQO1); conditions: oral administration, mammary epithelium; cited from earlier work
# [3] = system: Nad(P)H:quinone oxidoreductase 1 (NQO-1) gene expression; experiment: NQO-1 gene expression by quantitative RT-PCR in macrophage cell line RAW 264.7; assay type: cell-based; conditions: 0.5 μM SFN, RAW 264.7, 24 hours
# Method: The following study was conducted to determine the effect of the combination of sulforaphane and a maitake mushroom extract containing 20% β-glucans on gene expression of Nad(P)H:quinone oxidoreductase 1 (NQO-1). NQO-1 encodes a protein that is able to metabolize estrogen quinones, preventing them from forming DNA adducts that cause mutations and ultimately carcinogenesis. An increase in NQO-1 expression is favorable for breast, colon, liver, lung, skin and prostate health.
# In the study, the macrophage cell line RAW 264.7 was treated with DMSO (vehicle control), sulforaphane (SFN), maitake mushroom extract having about 20% beta-glucan content (Maitake), or the combination of sulforaphane and maitake mushroom extract, for 24 hours. […] Gene expression of NQO-1 gene expression was analyzed via quantitative RT-PCR. The results, which are depicted in FIG. 5, show the following: […]
# In the study, the macrophage cell line RAW 264.7 was treated with DMSO (vehicle control), sulforaphane (SFN), shiitake mushroom extract having at least 20% alpha-glucan content (Shiitake), or the combination of sulforaphane and shiitake mushroom extract, for 24 hours. […] Gene expression of NQO-1 gene expression was analyzed via quantitative RT-PCR. […]
# heme oxygenase-1 (HO-1) = conditions: oral administration, mammary epithelium; cited from earlier work
smiles,measurement,setting,value
"O=C1O[C@H]([C@@H](O)CO)C(O)=C1O [Ascorbic Acid, ascorbic acid]",relation of sulforaphane yield to ascorbic acid concentration,myrosinase,direct correlation
same,glucoraphanin content,"[1]; 50 μM ascorbic acid, 0 min",93.36 µmol
same,glucoraphanin content,"[1]; 50 μM ascorbic acid, 15 min",89.20 µmol
same,glucoraphanin content,"[1]; 50 μM ascorbic acid, 30 min",84.24 µmol
same,glucoraphanin content,"[1]; 50 μM ascorbic acid, 45 min",80.30 µmol
same,glucoraphanin content,"[1]; 50 μM ascorbic acid, 60 min",76.36 µmol
same,glucoraphanin content,"[1]; 125 μM ascorbic acid, 0 min",93.36 µmol
same,glucoraphanin content,"[1]; 125 μM ascorbic acid, 15 min",84.52 µmol
same,glucoraphanin content,"[1]; 125 μM ascorbic acid, 30 min",75.92 µmol
same,glucoraphanin content,"[1]; 125 μM ascorbic acid, 45 min",68.09 µmol
same,glucoraphanin content,"[1]; 125 μM ascorbic acid, 60 min",59.41 µmol
same,glucoraphanin content,"[1]; 250 μM Filtered ascorbic acid, 0 min",93.36 µmol
same,glucoraphanin content,"[1]; 250 μM Filtered ascorbic acid, 15 min",86.31 µmol
same,glucoraphanin content,"[1]; 250 μM Filtered ascorbic acid, 30 min",79.44 µmol
same,glucoraphanin content,"[1]; 250 μM Filtered ascorbic acid, 45 min",71.94 µmol
same,glucoraphanin content,"[1]; 250 μM Filtered ascorbic acid, 60 min",65.18 µmol
same,glucoraphanin content,"[1]; 250 μM ascorbic acid, 0 min",93.36 µmol
same,glucoraphanin content,"[1]; 250 μM ascorbic acid, 15 min",80.95 µmol
same,glucoraphanin content,"[1]; 250 μM ascorbic acid, 30 min",69.06 µmol
same,glucoraphanin content,"[1]; 250 μM ascorbic acid, 45 min",57.63 µmol
same,glucoraphanin content,"[1]; 250 μM ascorbic acid, 60 min",45.76 µmol
same,glucoraphanin content,"[1]; 400 μM ascorbic acid, 0 min",93.36 µmol
same,glucoraphanin content,"[1]; 400 μM ascorbic acid, 15 min",78.32 µmol
same,glucoraphanin content,"[1]; 400 μM ascorbic acid, 30 min",62.78 µmol
same,glucoraphanin content,"[1]; 400 μM ascorbic acid, 45 min",47.67 µmol
same,glucoraphanin content,"[1]; 400 μM ascorbic acid, 60 min",33.15 µmol
same,glucoraphanin content,"[1]; 600 μM ascorbic acid, 0 min",93.36 µmol
same,glucoraphanin content,"[1]; 600 μM ascorbic acid, 15 min",75.02 µmol
same,glucoraphanin content,"[1]; 600 μM ascorbic acid, 30 min",55.66 µmol
same,glucoraphanin content,"[1]; 600 μM ascorbic acid, 45 min",37.50 µmol
same,glucoraphanin content,"[1]; 600 μM ascorbic acid, 60 min",22.09 µmol
"C[S+]([O-])CCCCN=C=S (stereo not shown) [SFN, 1-isothiocyanato-4-methylsulfinylbutane]",increase in NQO1 enzymatic activity,[2],3 fold
same,Fold Increase in NQO-1 gene expression,[3],12.96 fold
same,elevated immunostaining of HO-1,heme oxygenase-1 (HO-1),4 fold
